{
  "source": "patent US20240100127A1",
  "about": "“TIRZEPATIDE THERAPEUTIC METHODS” (Eli Lilly and Company, priority 2021, published 2024)",
  "test_system": "patients with T2DM with HbA1c between ≥7.0% and ≤10.5% on metformin or metformin plus an SGLT-2 inhibitor",
  "assay": "Example 1 clinical trial using tirzepatide, 52 weeks, versus insulin degludec",
  "type": "in vivo, human",
  "details": "standard titration protocol",
  "from_the_text": "The enrollment criteria, set forth in Table 1 below, are designed to include participants who are similar to patients seen within a typical diabetes practice, and include some patient with type 2 diabetes that is refractory to oral treatment. Geriatric patients are included. Mean duration with type 2 diabetes about 8 years. Study continues for 52 weeks.\nThe study is designed to consist of a screening visit followed by a single-blind 3-week placebo run-in period. Afterwards, patients are randomized to tirzepatide 5, 10, or 15 mg (dosed using an escalation dose protocol) or insulin degludec (standard titration protocol) and followed at approximately monthly intervals. Patients receiving insulin degludec follow standard insulin degludec titration protocol during the study. Study protocol includes blood pressure measurement at each visit and serum lipid profile at study initiation and at 52 weeks using standard clinical methods. Blood Pressure measures using the methods of Example 1 are represented in FIGS. 3 and 4. HDL-C levels using the methods of Example 1 are represented in FIG. 1.",
  "data": [
    {"substance": "insulin degludec", "values": [
      {"measurement": "Percent patients achieving ≤5.7% HbA1c by 52 weeks", "value": "insulin degludec: 5.4%"}
    ]}
  ]
}
